The values below come from patent publication US20250353891A1 (MEDIMMUNE LIMITED, priority 2022, published 2025).

For assay [1], the target named is human GLP-1 receptor (hGLP-1R) (Homo sapiens, UniProt P43220). Nature of the assay: cAMP production (HTRF) in CHO cells expressing hGLP-1R. In kind it is cell-based. Details: expressed in transfected cells. The following applies: for EC50: cAMP in CHO hGLP-1R cells, geometric mean, read-out: hGLP-1R EC50; for % Relative Potency Ratio: % GLP-1R activity relative to GLP-1 / % GlucR activity relative to glucagon. In short, it runs like this:
(§1)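 Potency values represent EC50 from 4-parameter logistic curves of HTRF % Delta F signal. Receptor-expressing CHO cells (hGCGR 2×10^5 cells/mL, hGLP-1R 1×10^5 cells/mL) were exposed for 30 min at room temperature before two-step cAMP detection.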
A general note: Cyclic AMP is a second messenger, typically raised through Gs and lowered through Gi signalling.

In assay [2] the target is human glucagon receptor (hGCGR) (Homo sapiens, UniProt P47871). Nature of the assay: cAMP production (HTRF) in CHO cells expressing hGCGR. In kind it is cell-based. As to conditions: cAMP in CHO hGCGR cells, geometric mean, read-out: hGluc-R EC50. Details: expressed in transfected cells. In short, it runs like this: as §1
Sequence of human glucagon receptor (hGCGR) (P47871 26-477): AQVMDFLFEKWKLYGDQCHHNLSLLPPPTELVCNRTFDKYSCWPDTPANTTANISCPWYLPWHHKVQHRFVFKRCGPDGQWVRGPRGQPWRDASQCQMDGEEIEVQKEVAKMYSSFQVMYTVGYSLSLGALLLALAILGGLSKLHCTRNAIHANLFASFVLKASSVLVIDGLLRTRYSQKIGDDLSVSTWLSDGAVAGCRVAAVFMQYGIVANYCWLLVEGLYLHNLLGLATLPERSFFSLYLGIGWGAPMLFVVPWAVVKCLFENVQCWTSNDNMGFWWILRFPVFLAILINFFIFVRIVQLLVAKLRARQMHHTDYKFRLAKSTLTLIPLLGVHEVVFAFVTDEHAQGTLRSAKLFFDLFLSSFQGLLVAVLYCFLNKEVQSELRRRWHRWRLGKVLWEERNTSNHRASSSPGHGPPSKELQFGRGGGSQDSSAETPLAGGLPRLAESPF
The mark [3] stands for this setting: Table 6, peptides modified at position 17.
Where [4] appears, read: Table 7, peptides modified at position 20.

Where two headings read alike, the source gives them in different places. Starred links: 1 amine or outer side, 2 acyl side, 3 side chain; linkers in the order of their positions; H or OH if unused. Non-standard residues stand in square brackets, D forms with d. Residues, ends and D or L forms follow the SMILES beside them. Groups on a side chain read outwards from the residue. *: point of attachment. C20 diacid = O=C(O)CCCCCCCCCCCCCCCCCCC(=O)*; C18 diacid = O=C(O)CCCCCCCCCCCCCCCCC(=O)*; γGlu = O=C(O)[C@H](CCC(=O)[*:2])N[*:1]; αMeF = C[C@](N)(Cc1ccccc1)C(=O)O; AEEA = NCCOCCOCC(=O)O; Aib = CC(C)(N)C(=O)O

Sequence of human GLP-1 receptor (hGLP-1R) (P43220 24-463): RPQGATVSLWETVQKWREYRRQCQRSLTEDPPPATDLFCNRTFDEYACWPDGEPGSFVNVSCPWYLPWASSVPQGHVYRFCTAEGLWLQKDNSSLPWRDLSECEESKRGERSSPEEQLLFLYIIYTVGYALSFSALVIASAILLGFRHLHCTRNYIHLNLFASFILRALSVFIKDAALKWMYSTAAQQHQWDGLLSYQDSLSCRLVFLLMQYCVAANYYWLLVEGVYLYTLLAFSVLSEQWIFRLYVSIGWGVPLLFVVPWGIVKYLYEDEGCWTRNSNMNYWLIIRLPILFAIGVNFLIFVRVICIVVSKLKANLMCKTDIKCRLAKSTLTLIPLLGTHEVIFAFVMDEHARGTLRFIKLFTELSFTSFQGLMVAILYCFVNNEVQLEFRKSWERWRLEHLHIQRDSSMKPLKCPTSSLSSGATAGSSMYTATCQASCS

For `CC(C)C[C@H](NC(=O)[C@H](Cc1c[nH]c2ccccc12)NC(=O)[C@H](CCCNC(=N)N)NC(=O)[C@@H](NC(=O)[C@H](Cc1ccccc1)NC(=O)[C@H](CC(=O)O)NC(=O)[C@H](CCC(N)=O)NC(=O)[C@H](C)NC(=O)[C@H](CCCNC(=N)N)NC(=O)[C@H](CCCCNC(=O)COCCOCCNC(=O)COCCOCCNC(=O)CC[C@H](NC(=O)CCCCCCCCCCCCCCCCCCC(=O)O)C(=O)O)NC(=O)[C@@H](NC(=O)[C@H](CC(=O)O)NC(=O)[C@H](CC(C)C)NC(=O)[C@](C)(Cc1ccccc1)NC(=O)[C@H](CCCCN)NC(=O)[C@H](CO)NC(=O)[C@@H](NC(=O)[C@H](CC(=O)O)NC(=O)[C@H](CO)NC(=O)[C@@H](NC(=O)[C@H](Cc1ccccc1)NC(=O)[C@@H](NC(=O)CNC(=O)[C@H](CCC(N)=O)NC(=O)C(C)(C)NC(=O)[C@@H](N)Cc1c[nH]cn1)[C@@H](C)O)[C@@H](C)O)C(C)C)[C@@H](C)O)C(C)C)C(=O)N[C@@H](CC(C)C)C(=O)N[C@@H](CCCNC(=N)N)C(=O)NC(C)(C)C(=O)N[C@@H](C)C(=O)O` [Peptide 498] (H-H[Aib]QGTFTSDVSK[αMeF]LDTK([AEEA-AEEA-γGlu-C20 diacid])RAQDFVRWLLR[Aib]A-OH; N-terminus assumed), the EC50 in assay [1] (setting [3]) amounted to 156 pM; in assay [2] (setting [3]), 170 pM. Further, the “% Relative Potency Ratio” value in assay [1] (Table 6) worked out at 2.1.
Regarding `CC[C@H](C)[C@H](NC(=O)[C@H](Cc1c[nH]c2ccccc12)NC(=O)[C@H](CCCNC(=N)N)NC(=O)[C@@H](NC(=O)[C@H](Cc1ccccc1)NC(=O)[C@H](CC(=O)O)NC(=O)[C@H](CCCCNC(=O)COCCOCCNC(=O)COCCOCCNC(=O)CC[C@H](NC(=O)CCCCCCCCCCCCCCCCC(=O)O)C(=O)O)NC(=O)[C@H](C)NC(=O)[C@H](C)NC(=O)[C@H](CCCNC(=N)N)NC(=O)[C@H](CO)NC(=O)[C@H](CC(=O)O)NC(=O)[C@H](CC(C)C)NC(=O)[C@](C)(Cc1ccccc1)NC(=O)[C@H](CCCCN)NC(=O)[C@H](CO)NC(=O)[C@@H](NC(=O)[C@H](CC(=O)O)NC(=O)[C@H](CO)NC(=O)[C@@H](NC(=O)[C@H](Cc1ccccc1)NC(=O)[C@@H](NC(=O)CNC(=O)[C@H](CCC(N)=O)NC(=O)C(C)(C)NC(=O)[C@@H](N)Cc1c[nH]cn1)[C@@H](C)O)[C@@H](C)O)C(C)C)C(C)C)C(=O)N[C@@H](C)C(=O)N[C@@H](CC(N)=O)C(=O)N[C@H](C(N)=O)[C@@H](C)O` [Peptide 307], the EC50 in assay [1] (setting [4]) was 22.2 pM; in assay [2] (setting [4]), 1130 pM. Besides, the “% Relative Potency Ratio” value in assay [1] (Table 7) is 100.5.
As for `CC(C)C[C@H](NC(=O)[C@H](Cc1c[nH]c2ccccc12)NC(=O)[C@H](CCCNC(=N)N)NC(=O)[C@@H](NC(=O)[C@H](Cc1ccccc1)NC(=O)[C@H](CC(=O)O)NC(=O)[C@H](CCC(N)=O)NC(=O)[C@H](C)NC(=O)[C@H](CCCNC(=N)N)NC(=O)[C@H](CCCCNC(=O)COCCOCCNC(=O)COCCOCCNC(=O)CC[C@H](NC(=O)CCCCCCCCCCCCCCCCCCC(=O)O)C(=O)O)NC(=O)[C@H](CO)NC(=O)[C@H](CCC(=O)O)NC(=O)[C@H](CC(C)C)NC(=O)[C@](C)(Cc1ccccc1)NC(=O)[C@H](CCCCN)NC(=O)[C@H](CO)NC(=O)[C@@H](NC(=O)[C@H](CC(=O)O)NC(=O)[C@H](CO)NC(=O)[C@@H](NC(=O)[C@H](Cc1ccccc1)NC(=O)[C@@H](NC(=O)CNC(=O)[C@H](CCC(N)=O)NC(=O)C(C)(C)NC(=O)[C@@H](N)Cc1c[nH]cn1)[C@@H](C)O)[C@@H](C)O)C(C)C)C(C)C)C(=O)N[C@H](C(=O)N[C@@H](CCC(=O)O)C(=O)NC(C)(C)C(=O)NCC(N)=O)C(C)C` [Peptide 508] (H-H[Aib]QGTFTSDVSK[αMeF]LESK([AEEA-AEEA-γGlu-C20 diacid])RAQDFVRWLVE[Aib]G-NH2), the values for the EC50 in assay [1] (setting [3]) and in assay [2] (setting [3]) were 67.9 pM and 2800 pM, respectively. Moreover, the “% Relative Potency Ratio” value in assay [1] (Table 6) stood at 81.6.
Take `CC(C)C[C@H](NC(=O)[C@H](Cc1c[nH]c2ccccc12)NC(=O)[C@H](CCC(N)=O)NC(=O)[C@@H](NC(=O)[C@H](Cc1ccccc1)NC(=O)[C@H](CC(=O)O)NC(=O)[C@H](CCCNC(=N)N)NC(=O)[C@H](C)NC(=O)[C@H](CCCNC(=N)N)NC(=O)[C@H](CCCCNC(=O)COCCOCCNC(=O)COCCOCCNC(=O)CC[C@H](NC(=O)CCCCCCCCCCCCCCCCCCC(=O)O)C(=O)O)NC(=O)[C@H](CCCCN)NC(=O)[C@H](CC(=O)O)NC(=O)[C@H](CC(C)C)NC(=O)[C@](C)(Cc1ccccc1)NC(=O)[C@H](CCCCN)NC(=O)[C@H](CO)NC(=O)[C@@H](NC(=O)[C@H](CC(=O)O)NC(=O)[C@H](CO)NC(=O)[C@@H](NC(=O)[C@H](Cc1ccccc1)NC(=O)[C@@H](NC(=O)CNC(=O)[C@H](CCC(N)=O)NC(=O)C(C)(C)NC(=O)[C@@H](N)Cc1c[nH]cn1)[C@@H](C)O)[C@@H](C)O)C(C)C)C(C)C)C(=O)N[C@@H](CC(C)C)C(=O)NC(C)(C)C(=O)N[C@@H](CCC(=O)O)C(N)=O` [Peptide 470] (H-H[Aib]QGTFTSDVSK[αMeF]LDKK([AEEA-AEEA-γGlu-C20 diacid])RARDFVQWLL[Aib]E-NH2; N-terminus assumed): the EC50 in assay [1] (setting [3]) worked out at 55.9 pM; in assay [2] (setting [3]) it was 30.3 pM. In addition, the “% Relative Potency Ratio” value in assay [1] (Table 6) stood at 1.1.
As for `CC(C)C[C@H](NC(=O)[C@H](Cc1c[nH]c2ccccc12)NC(=O)[C@H](C)NC(=O)[C@@H](NC(=O)[C@H](Cc1ccccc1)NC(=O)[C@H](CC(=O)O)NC(=O)[C@H](CCCNC(=N)N)NC(=O)[C@H](C)NC(=O)[C@H](CCCNC(=N)N)NC(=O)[C@H](CCCCNC(=O)COCCOCCNC(=O)COCCOCCNC(=O)CC[C@H](NC(=O)CCCCCCCCCCCCCCCCC(=O)O)C(=O)O)NC(=O)[C@@H](NC(=O)[C@H](CC(=O)O)NC(=O)[C@H](CC(C)C)NC(=O)[C@](C)(Cc1ccccc1)NC(=O)[C@H](CCCCN)NC(=O)[C@H](CO)NC(=O)[C@@H](NC(=O)[C@H](CC(=O)O)NC(=O)[C@H](CO)NC(=O)[C@@H](NC(=O)[C@H](Cc1ccccc1)NC(=O)[C@@H](NC(=O)CNC(=O)[C@H](CCC(N)=O)NC(=O)C(C)(C)NC(=O)[C@@H](N)Cc1c[nH]cn1)[C@@H](C)O)[C@@H](C)O)C(C)C)[C@@H](C)O)C(C)C)C(=O)N[C@@H](CC(C)C)C(=O)NC(C)(C)C(=O)N[C@H](C(=O)N[C@@H](CCC(=O)O)C(=O)O)[C@@H](C)O` [Peptide 409] (H-H[Aib]QGTFTSDVSK[αMeF]LDTK([AEEA-AEEA-γGlu-C18 diacid])RARDFVAWLL[Aib]TE-OH; N-terminus assumed), the concentration giving a half-maximal response (EC50) in assay [1] (setting [3]) is 22.7 pM; in assay [2] (setting [3]) it was 203 pM. In addition, the “% Relative Potency Ratio” value in assay [1] (Table 6) worked out at 17.7.
`CC(C)C[C@H](NC(=O)C(C)(C)NC(=O)[C@H](CCC(N)=O)NC(=O)[C@@H](NC(=O)[C@H](Cc1ccccc1)NC(=O)[C@H](CC(=O)O)NC(=O)[C@H](CCC(N)=O)NC(=O)[C@H](C)NC(=O)[C@H](CCCNC(=N)N)NC(=O)[C@H](CCCCNC(=O)COCCOCCNC(=O)COCCOCCNC(=O)CC[C@H](NC(=O)CCCCCCCCCCCCCCCCC(=O)O)C(=O)O)NC(=O)[C@H](CO)NC(=O)[C@H](CC(=O)O)NC(=O)[C@H](CC(C)C)NC(=O)[C@](C)(Cc1ccccc1)NC(=O)[C@H](CCCCN)NC(=O)[C@H](CO)NC(=O)[C@@H](NC(=O)[C@H](CC(=O)O)NC(=O)[C@H](CO)NC(=O)[C@@H](NC(=O)[C@H](Cc1ccccc1)NC(=O)[C@@H](NC(=O)CNC(=O)[C@H](CCC(N)=O)NC(=O)C(C)(C)NC(=O)[C@@H](N)Cc1c[nH]cn1)[C@@H](C)O)[C@@H](C)O)C(C)C)C(C)C)C(=O)N[C@H](C(=O)N[C@@H](C)C(=O)N[C@H](C(=O)O)[C@@H](C)O)C(C)C` [Peptide 42] (H-H[Aib]QGTFTSDVSK[αMeF]LDSK([AEEA-AEEA-γGlu-C18 diacid])RAQDFVQ[Aib]LVAT-OH; N-terminus assumed): the concentration for a half-maximal effect (EC50) in assay [1] (setting [3]) came to 665 pM; in assay [2] (setting [3]), 8190 pM. The “% Relative Potency Ratio” value in assay [1] (Table 6) is recorded as 24.4.
Regarding `CC(C)C[C@H](NC(=O)[C@H](Cc1c[nH]c2ccccc12)NC(=O)[C@H](CCC(N)=O)NC(=O)[C@@H](NC(=O)[C@H](Cc1ccccc1)NC(=O)[C@H](CC(=O)O)NC(=O)[C@H](CCCNC(=N)N)NC(=O)[C@H](C)NC(=O)[C@H](CCCNC(=N)N)NC(=O)[C@H](CCCCNC(=O)COCCOCCNC(=O)COCCOCCNC(=O)CC[C@H](NC(=O)CCCCCCCCCCCCCCCCC(=O)O)C(=O)O)NC(=O)[C@@H](NC(=O)[C@H](CC(=O)O)NC(=O)[C@H](CC(C)C)NC(=O)[C@](C)(Cc1ccccc1)NC(=O)[C@H](CCCCN)NC(=O)[C@H](CO)NC(=O)[C@@H](NC(=O)[C@H](CC(=O)O)NC(=O)[C@H](CO)NC(=O)[C@@H](NC(=O)[C@H](Cc1ccccc1)NC(=O)[C@@H](NC(=O)CNC(=O)[C@H](CCC(N)=O)NC(=O)C(C)(C)NC(=O)[C@@H](N)Cc1c[nH]cn1)[C@@H](C)O)[C@@H](C)O)C(C)C)[C@@H](C)O)C(C)C)C(=O)N[C@@H](CC(C)C)C(=O)N[C@@H](CCC(=O)O)C(=O)NC(C)(C)C(=O)NCC(N)=O` [Peptide 427], the EC50 in assay [1] (setting [3]) is 12.4 pM; in assay [2] (setting [3]), 47.2 pM. Besides, the “% Relative Potency Ratio” value in assay [1] (Table 6) was found to be 7.5.

By EC50 is commonly meant the midpoint of the concentration-response curve.
